Measurements from PubChem BioAssay AID288 (DTP/NCI, 2004).
Results filed as inconclusive are left out.

Tested on: BDF1 mice, M5076 sarcoma s.c., survival/tumor T/C
Assay: NCI In Vivo Anticancer Drug Screen. Data for tumor model Sarcoma M5076 (subcutaneous) in B6D2F1 (BDF1) mice
Procedure: The antitumor activity of compounds was measured in mice bearing transplantable tumors. Survival or tumor size were measured and the results are expressed as the measurement made in the treated group (T) divided by the measurement made in the vehicle treated control group (C). The tumor model used in this assay is Sarcoma M5076 (subcutaneous) in B6D2F1 (BDF1) mice

[1] = endpoint: median survival time, dose: 50.0 mg/kg/injection, schedule: Q01DX009 (ip), vehicle: saline with Tween-80, higher = longer survival
[2] = endpoint: median survival time, dose: 100.0 mg/kg/injection, schedule: Q01DX009 (ip), vehicle: saline with Tween-80, higher = longer survival
[3] = endpoint: median survival time, dose: 200.0 mg/kg/injection, schedule: Q01DX009 (ip), vehicle: saline with Tween-80, higher = longer survival
[4] = endpoint: median tumor weight (est.), dose: 50.0 mg/kg/injection, schedule: Q01DX009 (ip), vehicle: saline with Tween-80, higher = larger tumour
[5] = endpoint: median tumor weight (est.), dose: 100.0 mg/kg/injection, schedule: Q01DX009 (ip), vehicle: saline with Tween-80, higher = larger tumour
[6] = endpoint: median tumor weight (est.), dose: 200.0 mg/kg/injection, schedule: Q01DX009 (ip), vehicle: saline with Tween-80, higher = larger tumour

COc1cc(/C=N/NC(=O)COCC(=O)N/N=C/c2ccc(O)cc2OC)ccc1O
T/C [1]: 94 % of control
T/C [2]: 86 % of control
T/C [3]: 91 % of control
T/C [4]: 116 % of control
T/C [5]: 122 % of control
T/C [6]: 122 % of control

OC(CBr)C(O)C(O)C(O)CBr (stereo unspecified)
T/C (endpoint: mean tumor weight, dose: 37.5 mg/kg/injection, schedule: Q02DX011 (ip), vehicle: Klucel (hydroxypropylcellulose) (HPC), higher = larger tumour): 66 % of control
T/C (endpoint: mean tumor weight, dose: 75.0 mg/kg/injection, schedule: Q02DX011 (ip), vehicle: Klucel (hydroxypropylcellulose) (HPC), higher = larger tumour): 63 % of control
T/C (endpoint: mean tumor weight, dose: 150.0 mg/kg/injection, schedule: Q02DX011 (ip), vehicle: Klucel (hydroxypropylcellulose) (HPC), higher = larger tumour): 52 % of control
T/C (endpoint: median survival time, dose: 30.0 mg/kg/injection, schedule: Q04DX009 (ip), vehicle: saline with Tween-80, higher = longer survival): 108 % of control
T/C (endpoint: median survival time, dose: 60.0 mg/kg/injection, schedule: Q02DX033 (ip), vehicle: saline with Tween-80, higher = longer survival): 112 % of control
T/C (endpoint: median survival time, dose: 60.0 mg/kg/injection, schedule: Q04DX009 (ip), vehicle: saline with Tween-80, higher = longer survival): 108 % of control
T/C (endpoint: median survival time, dose: 120.0 mg/kg/injection, schedule: Q02DX033 (ip), vehicle: saline with Tween-80, higher = longer survival): 158 % of control
T/C (endpoint: median survival time, dose: 120.0 mg/kg/injection, schedule: Q04DX009 (ip), vehicle: saline with Tween-80, higher = longer survival): 112 % of control
T/C (endpoint: median tumor weight (est.), dose: 37.5 mg/kg/injection, schedule: Q02DX011 (ip), vehicle: Klucel (hydroxypropylcellulose) (HPC), higher = larger tumour): 75 % of control
T/C (endpoint: median tumor weight (est.), dose: 75.0 mg/kg/injection, schedule: Q02DX011 (ip), vehicle: Klucel (hydroxypropylcellulose) (HPC), higher = larger tumour): 90 % of control
T/C (endpoint: median tumor weight (est.), dose: 150.0 mg/kg/injection, schedule: Q02DX011 (ip), vehicle: Klucel (hydroxypropylcellulose) (HPC), higher = larger tumour): 72 % of control

COC(=O)C[C@](O)(CCCC(C)(C)O)C(=O)O[C@@H]1C(OC)=C[C@]23CCCN2CCc2cc4c(cc2[C@H]13)OCO4
T/C (endpoint: mean tumor weight, dose: 0.5 mg/kg/injection, schedule: Q02DX011 (ip), vehicle: saline, higher = larger tumour): 114 % of control
T/C (endpoint: mean tumor weight, dose: 2.0 mg/kg/injection, schedule: Q02DX011 (ip), vehicle: saline, higher = larger tumour): 37 % of control
T/C (endpoint: median tumor weight (est.), dose: 0.5 mg/kg/injection, schedule: Q02DX011 (ip), vehicle: saline, higher = larger tumour): 77 % of control
T/C (endpoint: median tumor weight (est.), dose: 2.0 mg/kg/injection, schedule: Q02DX011 (ip), vehicle: saline, higher = larger tumour): 34 % of control

COc1ccc(/C=N/OC(=S)NC2CCCCC2)cc1OC
T/C [1]: 102 % of control
T/C [2]: 86 % of control
T/C [3]: 92 % of control

COc1ccc(Cl)cc1NC(=O)NNC(=O)C(=O)Nc1ccc(F)cc1
T/C [1]: 106 % of control
T/C [2]: 106 % of control
T/C [3]: 113 % of control
T/C [4]: 87 % of control
T/C [6]: 115 % of control

CC(=O)Nc1ccc(S(=O)(=O)NNC(=O)C(=O)Nc2cccc(Cl)c2)cc1
T/C [1]: 105 % of control
T/C [2]: 98 % of control
T/C [3]: 86 % of control
T/C [4]: 113 % of control
T/C [5]: 108 % of control
T/C [6]: 92 % of control

CC[C@]1(O)C[C@H]2CN(CCc3c([nH]c4ccccc34)[C@@](C(=O)OC)(c3cc4c(cc3OC)N(C=O)[C@H]3[C@@](O)(C(=O)OC)[C@H](OC(C)=O)[C@]5(CC)C=CCN6CC[C@]43[C@@H]65)C2)C1
T/C (endpoint: median survival time, dose: 0.08 mg/kg/injection, schedule: Q02DX030 (ip), vehicle: saline, higher = longer survival): 110 % of control
T/C (endpoint: median survival time, dose: 0.08 mg/kg/injection, schedule: Q04DX006 (ip), vehicle: saline, higher = longer survival): 112 % of control
T/C (endpoint: median survival time, dose: 0.15 mg/kg/injection, schedule: Q04DX006 (ip), vehicle: saline, higher = longer survival): 97 % of control
T/C (endpoint: median survival time, dose: 0.3 mg/kg/injection, schedule: Q04DX006 (ip), vehicle: saline, higher = longer survival): 103 % of control
T/C (endpoint: median survival time, dose: 0.6 mg/kg/injection, schedule: Q04DX006 (ip), vehicle: saline, higher = longer survival): 109 % of control

COc1ccc(/C=C2\SC(=O)N(C)C2=O)cc1OC
T/C [1]: 93 % of control
T/C [2]: 100 % of control
T/C [3]: 93 % of control
T/C [4]: 104 % of control
T/C [5]: 110 % of control
T/C [6]: 77 % of control
